Entries after “also recorded” stand apart in the source; their conditions may differ.
Experiments:
RARβ2 and RARγ mRNA = assay: RARβ/RARγ expression by reverse transcriptase PCR in NB4 cells; type: cell-based, human; settings: for Expression of RARβ2 (and RARγ) by RT-PCR: retinoid alone
Method: Total RNA was isolated and reverse transcribed in a buffer solution comprising 10 mM Tris-HCl (pH 8.3), 50 mM KCl, 2 mM MgCl2 and 1 mM of all four deoxynucleoside triphosphates, using 25 units of AMV reverse transcriptase in the presence of 50 units of RNAsin for 60 minutes at 42° C. For reverse transcription, 25 picomoles per reaction of the common antisense primer 5′-[…]-3′ (SEQ ID NO:6) for either RARα, β or γ was used. For each PCR reaction the common antisense primer, one-fourth of the reverse transcribed product and the following specific sense primers were used: […]
The amplification was carried out in a final volume of 0.1 ml, using Taq DNA polymerase (Perkin Elmer Cetus) according the manufacturer's instructions. Eighteen PCR cycles (30 seconds at 94° C., 30 seconds at 65° C. and 30 seconds at 72° C.) were performed, and a 10 microliter aliquot of each reaction was analyzed by electrophoresis on a 6% native polyacrylamide gel, which was then stained with ethidium bromide and examined by ultraviolet illumination.

NB4 cells [1] = assay: NB4 cell differentiation (TPA-induced nitroblue tetrazolium reduction); type: cell-based, human
Method: NB4 cells were obtained from ATCC and were grown in RPMI-1640 (plus 2 mM L-glutamine) containing 100 […] penicillin and streptomycin and 8% fetal bovine serum (FBS). Cells were treated for four days with retinoid(s) or ethanol vehicle, then washed and resuspended at a density of 5×10^5 cells/ml. 50 microliter aliquots of this suspension were spread over poly-L-lysine coated slides (Sigma, St. Louis, Mo.). After washing with PBS (137 mM NaCl, 2.7 mM KCl, 4.3 mM Na2HPO4, 1.4 mM KH2PO4), the cells were fixed for 10 minutes in 2% formalin (37% formaldehyde in 15% methanol in water) at room temperature.
Following fixation, cells were washed three times in PBS and were scored by TPA (12-O-tetradecanoyl-phorbol-13-acetate, 200 ng/ml)-induced nitroblue tetrazolium reduction (Sigma Fast BCIP/NBT) for 30 minutes at 37° C. Samples were examined for cellular and nuclear morphology with an optical microscope (Diavert Leitz); the percentage of differentiated cells was determined by counting at least 300 cells for each treatment.

NB4 cells [2] = assay: NB4 cell apoptosis (flow cytometry, DNA fragmentation); type: cell-based, human; settings: for Induction of NB4 cell apoptosis: retinoid alone
Method: The cell cycle distribution and presence of “sub-2N” cells and particles in control and retinoid-treated NB4 cells were determined by cell cycle flow cytometry based on DNA content, using an EPICS Profile II cell sorter (Coulter Electronics, Inc., Hialeah, Fla.) equipped with a 15 watt argon laser tuned to an excitation wavelength of 488 nm and filter sets providing an emission wavelength of 575 nm. Cultures of untreated or retinoid-treated cells were centrifuged (250×g) and fixed in 70% ethanol and stored at −20° C. Following two washes in PBS, the cells and subcellular particles were incubated in 1 mg/ml RNase A (59 Kunitz units/mg, Sigma Chemical Co., St. Louis, Mo.) for 30 minutes at 37° C., centrifuged and resuspended in PBS at a concentration of approximately 10^6 cells per ml. Ethidium bromide was added to a final concentration of 50 micrograms/ml immediately prior to sample analysis.
The induction of apoptosis by retinoids was also determined by the appearance of a “ladder” of fragmented DNA as previously described (Nagy, L., et al., Mol. Cell. Biol. 15:3540-3551 (1995)). Cells were refed with fresh media and retinoids every 2 days, and the cell density was maintained well below saturation in order to prevent cell death due to nutrient and/or mitogen depletion. Five micrograms per lane of DNA was electrophoresed in a 1.5% agarose gel, followed by staining with ethidium bromide, and DNA bands were visualized and photographed via ultraviolet illumination of ethidium bromide fluorescence.

AP1 activity = settings: via all three RARs; Chen et al. 1995; cited from earlier work
PML-RARα = target: T1, PML-RARα (Homo sapiens, UniProt P10276+P29590); assay: Anti-PML immunofluorescence: association of PML/PML-RARα with nuclear bodies in NB4 cells; type: cell-based; settings: with SR11237
T1 construct: induced the association of endogenous PMUPML-RARα with nuclear bodies; endogenous in cells; host or cells: NB4 human acute promyelocytic leukemia cells
T1 sequence (P10276 61-462 limits assumed): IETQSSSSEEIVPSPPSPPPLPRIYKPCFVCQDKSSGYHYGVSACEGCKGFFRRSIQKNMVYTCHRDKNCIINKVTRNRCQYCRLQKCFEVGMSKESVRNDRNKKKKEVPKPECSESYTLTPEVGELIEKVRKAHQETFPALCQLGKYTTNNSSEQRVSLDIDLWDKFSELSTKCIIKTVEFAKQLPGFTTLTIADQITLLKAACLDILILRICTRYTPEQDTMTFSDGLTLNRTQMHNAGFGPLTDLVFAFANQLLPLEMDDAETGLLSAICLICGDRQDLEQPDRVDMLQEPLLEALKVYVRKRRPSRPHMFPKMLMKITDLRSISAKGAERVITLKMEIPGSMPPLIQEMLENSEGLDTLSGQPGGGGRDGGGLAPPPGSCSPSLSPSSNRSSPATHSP
Method: Following fixation, cells were permeabilized with 0.1% Triton X-100 in PBS (buffer A). After washing in PBS, the cells were blocked in 0.5 mg/ml normal goat IgG (Jackson Laboratories, Bar Harbor, Me.) in PBS for 30 minutes at room temperature, and thereafter incubated overnight at 4° C. with a polyclonal anti-PML antibody (the kind gift of Dr. Anne Dejean), diluted in buffer A containing 0.5 mg/ml normal goat IgG (buffer B) at 4° C. After three washes in buffer A, the cells were incubated with donkey anti-rabbit IgG (H+L) conjugated with cyanine 3 (Jackson Laboratories, Bar Harbor, Me.) in buffer B for 1 hour at room temperature. Following washes in PBS the mounted samples were examined with a confocal laser microscope (TCS, Leica) equipped with cyanine optics for PML localization.

GAL-RARβ = target: T2, GAL-RARβ (Homo sapiens, UniProt P10826); assay: HeLa reporter cells, agonistic/antagonistic activity of RAR-specific ligands; type: cell-based; settings: FIG. 1
T2 construct: expressed in transfected cells; host or cells: HeLa
T2 sequence (P10826 183-417 limits assumed): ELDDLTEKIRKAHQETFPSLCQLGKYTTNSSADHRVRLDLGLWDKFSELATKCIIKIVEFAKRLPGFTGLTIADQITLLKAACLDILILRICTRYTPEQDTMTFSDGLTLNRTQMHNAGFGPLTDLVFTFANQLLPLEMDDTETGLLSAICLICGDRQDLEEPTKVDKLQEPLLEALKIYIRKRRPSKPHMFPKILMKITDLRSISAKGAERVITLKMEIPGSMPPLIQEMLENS
Method: (§1) HeLa reporter cell lines containing a retinoid-inducible luciferase reporter gene (17 m)5-globin-Luc in the stably transfected reporter constructs GAL-RARα, GAL-RARβ or GAL-RARγ were constructed and used as described previously (Chen, J. Y., et al., EMBO J. 14:1187-1197 (1995)). Cells were treated with RAR-specific ligands, and luciferase-induced bioluminescence was monitored in vivo using a single-photon-counting camera (Hamamatsu) by seeding equal amounts of cells in 24-well tissue culture plates and incubating them with increasing concentrations of retinoids alone, or in the presence of T-RA to determine the antagonistic potential of the ligands.

GAL-RARγ = target: T3, GAL-RARγ (Homo sapiens, UniProt P13631); assay: as above; type: cell-based; settings: FIG. 1
T3 construct: expressed in transfected cells; host or cells: HeLa
T3 sequence (P13631 185-419 limits assumed): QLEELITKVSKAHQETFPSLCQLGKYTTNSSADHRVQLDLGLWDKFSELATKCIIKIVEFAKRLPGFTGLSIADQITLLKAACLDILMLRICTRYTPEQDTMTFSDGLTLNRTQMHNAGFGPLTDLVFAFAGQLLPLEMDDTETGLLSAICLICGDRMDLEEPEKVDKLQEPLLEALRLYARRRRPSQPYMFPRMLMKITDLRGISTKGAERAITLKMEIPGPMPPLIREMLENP
Method: as §1

GAL-RARα = target: T4, GAL-RARα (Homo sapiens, UniProt P10276); assay: as above; type: cell-based; settings: FIG. 1, FIG. 2
T4 construct: expressed in transfected cells; host or cells: HeLa
T4 sequence (P10276 183-417 limits assumed): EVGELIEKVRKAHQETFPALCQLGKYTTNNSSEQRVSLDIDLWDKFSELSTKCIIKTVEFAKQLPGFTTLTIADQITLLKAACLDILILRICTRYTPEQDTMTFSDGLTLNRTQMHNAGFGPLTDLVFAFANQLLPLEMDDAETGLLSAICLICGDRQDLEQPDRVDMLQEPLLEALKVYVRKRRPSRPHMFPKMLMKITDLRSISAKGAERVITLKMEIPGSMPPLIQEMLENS
Method: as §1

P19 cells = settings: ligand on its own, Roy et al. 1995; cited from earlier work
F9 EC cells = settings: ligand on its own, Roy et al. 1995; cited from earlier work
[3] = in presence of RXR agonist SR11237
[4] = retinoid alone at 1 (concentration unit not given), 4 days
[5] = retinoid alone at 10 (concentration unit not given), 4 days
[6] = retinoid alone at 100 (concentration unit not given), 4 days
[7] = retinoid at 1 +100 nM SR11237, 4 days
[8] = retinoid alone at 1000 (concentration unit not given), 4 days
[9] = retinoid at 10 +100 nM SR11237, 4 days
[10] = retinoid at 100 +100 nM SR11237, 4 days

Row | SMILES | Expression of RARβ2 (and RARγ) by RT-PCR (RARβ2 and RARγ mRNA) | Induction of NB4 cell differentiation (NB4 cells [1]; [3]) | Percentage of NB4 cells differentiated (NB4 cells [1]; [4]) [%] | Percentage of NB4 cells differentiated (NB4 cells [1]; [5]) [%] | Percentage of NB4 cells differentiated (NB4 cells [1]; [6]) [%] | Percentage of NB4 cells differentiated (NB4 cells [1]; [7]) [%] | Induction of NB4 cell differentiation (NB4 cells [1]; retinoid on its own) | Percentage of NB4 cells differentiated (NB4 cells [1]; [8]) [%] | Induction of NB4 cell apoptosis (NB4 cells [2]) | Percentage of NB4 cells differentiated (NB4 cells [1]; [9]) [%] | Percentage of NB4 cells differentiated (NB4 cells [1]; [10]) [%] | further results
1 | CC1(C)CCC(C)(C)c2cc(NC(=O)c3ccc(C(=O)O)cc3)ccc21 [Am80] | induced expression of RARβ2 (and RARγ) was confirmed | significantly more efficient at inducing differentiation at low concentrations | 80 | 81 | 80 | 80 | efficiently induced differentiation |  |  |  |  | Percentage of NB4 cells differentiated (NB4 cells [1]; retinoid alone at 0.1 (concentration unit not given), 4 days): <1%; Percentage of NB4 cells differentiated (NB4 cells [1]; retinoid alone at 0.3 (concentration unit not given), 4 days): <1%; Percentage of NB4 cells differentiated (NB4 cells [1]; retinoid alone at 0.5 (concentration unit not given), 4 days): <1%; Percentage of NB4 cells differentiated (NB4 cells [1]; retinoid at 0.1 +100 nM SR11237, 4 days): <1%; Percentage of NB4 cells differentiated (NB4 cells [1]; retinoid at 0.3 +100 nM SR11237, 4 days): 20%; Percentage of NB4 cells differentiated (NB4 cells [1]; retinoid at 0.5 +100 nM SR11237, 4 days): 40%
2 | CC1=C(/C=C/C(C)=C\C=C\C(C)=C\C(=O)O)C(C)(C)CCC1 [Compound 9C-RA, 9-cis (9C-RA) retinoic acid] |  |  | <1 | 4 | 65 |  |  | 70 |  |  |  | 
3 | CC1(C)CC=C(c2ccccc2)c2cc(/C=C/c3ccc(C(=O)O)cc3)ccc21 [Compound A] | no induction | induced differentiation with higher efficiency than T-RA or 9C-RA |  |  |  | <1 | ineffective on their own | <1 | inefficient alone | 65 | 78 | Antiproliferative and apoptotic effect on NB4 cells (NB4 cells [2]; in combination with SR11237): strong antiproliferative and apoptotic effect; RARβ and RARγ mRNA production (RARβ2 and RARγ mRNA; with SR11237): efficient accumulation of RARβ and RARγ mRNA; Repression of AP1 activity (AP1 activity): efficiently repressing AP1 activity via all three RARs; Association of PML-RARα with nuclear bodies (PML-RARα): indistinguishable from that seen in presence of RARα agonists
4 | CC1(C)CC=C(c2cnc3ccccc3c2)c2cc(C(=O)Nc3ccc(C(=O)O)cc3)ccc21 [Compound B] |  | induced differentiation |  |  |  | <1 | ineffective on their own | <1 |  | 3 | 5 | Binding to RARβ (GAL-RARβ): does not bind; Binding to RARγ (GAL-RARγ): does not bind; Binding to RARα (GAL-RARα): lower binding affinity for RARα; Block of differentiation induced by 1 nM Am80 (NB4 cells [1]; excess of the compound): completely blocked; Percentage of NB4 cells differentiated (NB4 cells [1]; retinoid at 1000 +100 nM SR11237, 4 days): 10%
5 | CC1(C)CCC(C)(C)c2cc(C3(c4ccc(C(=O)O)cc4)OCCO3)ccc21 [SR11237] |  |  |  |  |  |  | ineffective on their own; also recorded: did not induce differentiation | <2 | inefficient alone |  |  | Induction of differentiation and expression of RA target genes (P19 cells): unable to induce; Induction of differentiation and expression of RA target genes (F9 EC cells): unable to induce
6 | CC1=C(/C=C/C(C)=C/C=C/C(C)=C/C(=O)O)C(C)(C)CCC1 [T-RA, all-trans retinoic acid] |  |  | <1 | <1 | 81 |  |  | 80 | extensive apoptosis |  |  | 
